Source: patent US6750228B1, “Aromatic sulfone hydroxamic acid metalloprotease inhibitor” (priority 1997, dated 2004)
Where two headings read alike, the source gives them in different places.

Assays:
[1] = target: T1, MMP-13 (Homo sapiens, UniProt P45452); assay: biochemical; details: read-out: MMP-13 IC50
T1 construct: made in house; host or cells: baculovirus / insect cells
Description: (§1) The compounds prepared in the manner described in the Examples above were assayed for activity by an in vitro assay. […] Briefly, 4-aminophenylmercuric acetate (APMA) or trypsin-activated MMPs were incubated with various concentrations of the inhibitor compound at room temperature for 5 minutes.
(§2) The expressed enzyme was purified first over a heparin agarose column and then over a chelating zinc chloride column. The proenzyme was activated by APMA for use in the assay.
(§3) MMP-1 expressed in transfected HT-1080 cells was provided by Dr. Harold Welgus of Washington University, St. Louis, Mo. The enzyme was also activated using APMA and was then purified over a hydroxamic acid column. Dr. Welgus also provided transfected HT-1080 cells that expressed MMP-9. Transfected cells that expressed MMP-2 were provided by Dr. Gregory Goldberg, also of Washington University. Studies with MMP-7 were carried out at pH 7.5 in the presence of 0.02% 2-mercaptoethanol using conditions otherwise similar to those used for the other enzymes. The enzyme was obtaind from a hMMP-7-expressing E. coli clone that was a gift of Dr. Steven Shapiro of Washington University, St. Louis, Mo. Further specifics for preparation and use of these enzymes can be found in the scientific literature describing these enzymes. See, for example, Enzyme Nomenclature, Academic Press, San Diego, Calif. […] The enzyme substrate is a methoxycoumarin-containing polypeptide having the following sequence:
(§4) MCA-ProLeuGlyLeuDpaAlaArgNH2, wherein MCA is methoxycoumarin and Dpa is 3-(2,4-dinitrophenyl)-L-2,3-diaminopropionyl alanine.
(§5) The buffer used for assays contained 100 mM Tris-HCl, 100 mM NaCl, 10 mM CaCl2 and 0.05 percent polyethyleneglycol (23) lauryl ether at a pH value of 7.5. Assays were carried out at room temperature, and dimethyl sulfoxide (DMSO) at a final concentration of 1 percent was used to dissolve inhibitor compound.
(§6) The assayed inhibitor compound in DMSO/buffer solution was compared to an equal amount of DMSO/buffer with no inhibitor as control using Microfluor White Plates (Dynatech). The inhibitor or control solution was maintained in the plate for 10 minutes and the substrate was added to provide a final concentration of 4 μM.
(§7) Inhibition was measured as a reduction in fluorescent intensity as a function of inhibitor concentration, using a Perkin Elmer L550 plate reader. The IC50 values were calculated from those values. The results are set forth in the Inhibition Table A, below, reported in terms of IC50 to three significant figures, where appropriate.

[2] = target: T2, MMP-2 (Homo sapiens, UniProt P08253); assay: biochemical
T2 construct: made in house; provided by Dr. Gregory Goldberg, Washington University
T2 sequence (P08253 110-660): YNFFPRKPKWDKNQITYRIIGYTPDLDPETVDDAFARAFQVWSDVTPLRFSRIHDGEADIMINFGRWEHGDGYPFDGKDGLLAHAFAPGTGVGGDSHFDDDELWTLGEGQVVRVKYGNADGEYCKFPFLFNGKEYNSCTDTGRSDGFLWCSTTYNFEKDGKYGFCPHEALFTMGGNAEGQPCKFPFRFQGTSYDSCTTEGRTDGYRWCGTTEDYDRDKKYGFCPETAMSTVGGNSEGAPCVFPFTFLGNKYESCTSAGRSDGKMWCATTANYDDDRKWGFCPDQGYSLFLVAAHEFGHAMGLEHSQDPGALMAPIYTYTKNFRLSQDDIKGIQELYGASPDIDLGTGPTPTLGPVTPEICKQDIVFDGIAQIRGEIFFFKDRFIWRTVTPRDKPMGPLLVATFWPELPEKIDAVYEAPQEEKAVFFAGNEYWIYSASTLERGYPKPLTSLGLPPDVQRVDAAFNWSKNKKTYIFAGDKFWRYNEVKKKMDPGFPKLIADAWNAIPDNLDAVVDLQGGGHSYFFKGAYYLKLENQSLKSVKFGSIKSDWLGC
Description: as §1, §2, §3, §4, §5, §6, §7

[3] = recombinant human MMP-13, MCA peptide substrate 4 μM, pH 7.5, room temperature
[4] = recombinant human MMP-2, MCA peptide substrate 4 μM, pH 7.5, room temperature, read-out: MMP-2 IC50

| Compound | IC50 [1, 3] [µM] | IC50 [2, 4] [nM] | IC50 [1] [µM] | IC50 ([2]; read-out: MMP-2 IC50) [nM] | IC50 ([2]; MMP-2 IC50 (nM)) [nM] |
| --- | --- | --- | --- | --- | --- |
| CN(C)c1cccc2c(S(=O)(=O)N3CC(Oc4ccc(S(=O)(=O)C5(C(=O)NO)CCOCC5)cc4)C3)cccc12 [Example 852] | 0.025 | 3000 |  |  |  |
| C#CCN1CCC(C(N)=O)(S(=O)(=O)c2ccc(Sc3ccccc3)cc2)CC1 [Example 2] | 5.5 | 6000 |  |  |  |
| Cc1ccc(C2CCN(c3ccc(S(=O)(=O)C4(C(=O)NO)CCOCC4)cc3)CC2)cc1C [Example 869] | 0.002 | 76.9 |  |  |  |
| COCCN1CCC(C(N)=O)(S(=O)(=O)c2ccc(Oc3ccc(OC(F)(F)F)cc3)cc2)CC1 [Example 1] | 0.0227 | 8.5 |  |  |  |
| O=C(NO)C1(S(=O)(=O)c2ccc(N3CCN(c4ccc(Cl)cc4)CC3)cc2)CCN(C2CC2)CC1 [Example 354] | 0.0016 | 15.4 |  |  |  |
| COc1cc(C(=O)C2CCN(c3ccc(S(=O)(=O)C4(C(=O)NO)CCOCC4)cc3)CC2)ccc1Cl [Example 859] | 0.0055 | 440 |  |  |  |
| COc1ccc(CC(=O)C2CCN(c3ccc(S(=O)(=O)C4(C(=O)NO)CCOCC4)cc3)CC2)cc1 [Example 862] | 0.0017 | 40 |  |  |  |
| O=C(NO)C1(S(=O)(=O)c2ccc(N3CCN(CCO)CC3)cc2)CCOCC1 [Example 623] | 0.35 | 1400 |  |  |  |
| CCc1ccc(C(=O)C2CCN(c3ccc(S(=O)(=O)C4(C(=O)NO)CCN(C5CC5)CC4)cc3)CC2)cc1 [Example 371] | 0.0111 | 400 |  |  |  |
| CC1CC(C)CN(C(=O)C2CCN(c3ccc(S(=O)(=O)C4(C(=O)NO)CCOCC4)cc3)CC2)C1 (centres unmarked) [Example 55] | 0.01 | > 10000 |  |  |  |
| Cc1ccc(C(O)C2CCN(c3ccc(S(=O)(=O)C4(C(=O)NO)CCOCC4)cc3)CC2)cc1C (centres unmarked) [Example 826] | 0.04 | 650 |  |  |  |
| COc1ccc(N2CCN(c3ccc(S(=O)(=O)C4(C(=O)NO)CCN(C5CC5)CC4)cc3)CC2)cc1 [Example 368] |  | 7 |  |  |  |
| O=CN1CCC(C(=O)NO)(S(=O)(=O)c2ccc(Oc3ccc(OC(F)(F)F)cc3)cc2)CC1 [Example 452] | < 0.0001 | < 0.1 |  |  |  |
| Cc1ccc(S(=O)(=O)N(C)C2CCN(c3ccc(S(=O)(=O)C4(C(=O)NO)CCOCC4)cc3)CC2)cc1 [Example 834] | 0.15 | 780 |  |  |  |
| C=C(C)c1ccc(N2CCN(c3ccc(S(=O)(=O)C4(C(=O)NO)CCN(C5CC5)CC4)cc3)CC2)cc1 [Example 360] | 0.01 | 5.6 |  |  |  |
| O=C(NO)C1(S(=O)(=O)c2ccc(N3CCC(c4nc(-c5cccc(C(F)(F)F)c5)no4)CC3)cc2)CCN(C2CC2)CC1 [Example 388] | 0.05 | 430 |  |  |  |
| O=C(C1CCN(c2ccc(S(=O)(=O)C3(C(=O)NO)CCOCC3)cc2)CC1)N1CCN(c2ccc(C(F)(F)F)cc2)CC1 [Example 38] |  |  | 0.0674 | 6000 |  |
| Cc1ccc(C(=O)C2CCN(c3ccc(S(=O)(=O)C4(C(=O)NO)CCN(C5CC5)CC4)cc3)CC2)cc1 [Example 373] | 0.003 | 80 |  |  |  |
| O=C(NO)C1(S(=O)(=O)c2ccc(Oc3ccc(C(F)(F)F)cc3)cc2)CCN(C2CC2)CC1 [Example 269] |  |  |  |  | < 0.1 |
| CSc1ccc(C(=O)C2CCN(c3ccc(S(=O)(=O)C4(C(=O)NO)CCOCC4)cc3)CC2)cc1 [Example 856] | 0.0012 | 250 |  |  |  |
| CCCCS(=O)(=O)N1CC(Oc2ccc(S(=O)(=O)C3(C(=O)NO)CCOCC3)cc2)C1 [Example 851] | 0.0037 | 42.5 |  |  |  |

| Compound | IC50 [1, 3] [µM] | IC50 [2, 4] [nM] | IC50 [1] [µM] | IC50 ([2]; read-out: MMP-2 IC50) [nM] | IC50 ([2]; MMP-2 IC50 (nM)) [nM] |
| --- | --- | --- | --- | --- | --- |
| COc1cccc(S(=O)(=O)N2CC(Oc3ccc(S(=O)(=O)C4(C(=O)NO)CCOCC4)cc3)C2)c1 [Example 829] | 0.006 | 22 |  |  |  |
| O=C(NO)C1(S(=O)(=O)c2ccc(C3=CCC(c4ccccc4)CC3)cc2)CCOCC1 (centres unmarked) [Example 828] | 0.0015 | 12.8 |  |  |  |
| CN(C)c1ccc(S(=O)(=O)C2CCN(c3ccc(S(=O)(=O)C4(C(=O)NO)CCOCC4)cc3)CC2)cc1 [Example 836] | 0.135 | 4200 |  |  |  |
| CNC(=S)N1CCC(C(=O)NO)(S(=O)(=O)c2ccc(Oc3ccc(OC(F)(F)F)cc3)cc2)CC1 [Example 198, N-hydroxy-4[[4-(4-trifluoromethoxyphenoxy)-]sulfonyl]-1-(N-methylthiourea)-4-piperidinecarboxamide] | 0.000375 | 0.25 |  |  |  |
| O=C(NO)C1(S(=O)(=O)c2ccc(N3CCC(SCc4ccc(C(F)(F)F)cc4)CC3)cc2)CCN(C2CC2)CC1 [Example 394] | 0.0005 | 8 |  |  |  |
| CCOc1ccc(C(=O)C2CCN(c3ccc(S(=O)(=O)C4(C(=O)NO)CCN(C5CC5)CC4)cc3)CC2)cc1 [Example 376] | 0.0055 | 230 |  |  |  |
| CC(=O)c1ccccc1S(=O)(=O)N1CC(Oc2ccc(S(=O)(=O)C3(C(=O)NO)CCOCC3)cc2)C1 [Example 854] | 0.04 | 3300 |  |  |  |
| C=CCN(CC=C)C(=O)C1CCN(c2ccc(S(=O)(=O)C3(C(=O)NO)CCOCC3)cc2)CC1 [Example 48] | 0.027 | 3200 |  |  |  |
| O=C(c1ccc(Cl)cc1)C1CCN(c2ccc(S(=O)(=O)C3(C(=O)NO)CCOCC3)cc2)CC1 [Example 857] | 0.0013 | 120 |  |  |  |
| O=C(NO)C1(S(=O)(=O)c2ccc(N3CCC(Sc4nc5ccccc5o4)CC3)cc2)CCN(C2CC2)CC1 [Example 382] | 0.0114 | 260 |  |  |  |
| O=C(NO)C1(S(=O)(=O)c2ccc(Oc3ccc(C(F)(F)F)cc3)cc2)CCN(C2CC2)CC1 [Example 270] |  |  |  |  | 1 |
| CS(=O)(=O)c1ccccc1S(=O)(=O)N1CC(Oc2ccc(S(=O)(=O)C3(C(=O)NO)CCOCC3)cc2)C1 [Example 845] | 0.0286 | 2000 |  |  |  |
| O=C(NO)C1(S(=O)(=O)c2ccc(N3CCC(OCc4cccc(C(F)(F)F)c4)CC3)cc2)CCOCC1 [Example 177] | 0.0088 | 520 |  |  |  |
| O=C(NO)C1(S(=O)(=O)c2ccc(Oc3ccc(C(F)(F)F)cc3)cc2)CCN(C2CC2)CC1 [Example 271] |  |  |  |  | 0.17 |
| O=C(NO)C1(S(=O)(=O)c2ccc(N3CCN(c4ccc(C(F)(F)F)cc4)CC3)cc2)CCN(C2CC2)CC1 [Example 356] | 0.0024 | 32.6 |  |  |  |
| O=C(Cc1ccc(Cl)cc1)C1CCN(c2ccc(S(=O)(=O)C3(C(=O)NO)CCOCC3)cc2)CC1 [Example 861] | 0.002 | 34.9 |  |  |  |
| C[C@H](OC1CCN(c2ccc(S(=O)(=O)C3(C(=O)NO)CCN(C4CC4)CC3)cc2)CC1)c1ccccc1 [Example 400] | 0.0235 | 520 |  |  |  |
| CC(C)(C)c1ccc(CC2CCN(c3ccc(S(=O)(=O)C4(C(=O)NO)CCOCC4)cc3)CC2)cc1 [Example 841] | 0.285 | 1900 |  |  |  |
| CN(C)S(=O)(=O)N1CC(Oc2ccc(S(=O)(=O)C3(C(=O)NO)CCOCC3)cc2)C1 [Example 853] | 0.0158 | 120 |  |  |  |
| O=C(NO)C1(S(=O)(=O)c2ccc(N3CCN(c4ccccc4)CC3)cc2)CCN(C2CC2)CC1 [Example 369] | 0.0033 | 5.4 |  |  |  |
| COc1ccccc1N1CCN(c2ccc(S(=O)(=O)C3(C(=O)NO)CCOCC3)cc2)CC1 [Example 85] | 0.13 | 370 |  |  |  |
